A short description of the data set: Plasma lipids (cholesterol, triglycerides, free fatty acids) in ZDF rats (Table 21). It counts as in vivo, rat. The protocol:
Saline-injected animals served as a control treatment group.
To further assess the physiological effects resulting from inhibition of target mRNA with antisense oligonucleotide alone or in combination with rosiglitazone, the rats were evaluated throughout the treatment period for plasma free fatty acids, plasma cholesterol, and plasma triglyceride levels. Free fatty acids, triglycerides and cholesterol were measured by routine clinical analyzer instruments (e.g. Olympus Clinical Analyzer, Melville, N.Y.). Glucose levels were measured using a glucose analyzer, for example a YSI glucose analyzer (YSI Scientific, Yellow Springs, Ohio).

As for “GTGCTTGGCGATGGTACTGA (chemistry not given here) [ISIS 366228]”, the “plasma cholesterol (CHOL)” value (Wk 0, ISIS 366228 12.5 mg/kg) was determined as 207 mg/dL; the “plasma cholesterol (CHOL)” value (Wk 0, ISIS 366228 25 mg/kg) stood at 210 mg/dL; the “plasma cholesterol (CHOL)” value (Wk 1, ISIS 366228 12.5 mg/kg) worked out at 201 mg/dL; the “plasma cholesterol (CHOL)” value (Wk 1, ISIS 366228 25 mg/kg) was found to be 196 mg/dL; the “plasma cholesterol (CHOL)” value (Wk 3, ISIS 366228 12.5 mg/kg) is listed as 196 mg/dL; the “plasma cholesterol (CHOL)” value (Wk 3, ISIS 366228 25 mg/kg) is 206 mg/dL. For the same sequence, the “plasma cholesterol (CHOL)” value (Wk 5, ISIS 366228 12.5 mg/kg) worked out at 176 mg/dL and the “plasma cholesterol (CHOL)” value (Wk 5, ISIS 366228 25 mg/kg) amounted to 183 mg/dL. For the same sequence, the “plasma triglycerides (TRIG)” value (Wk 0, ISIS 366228 12.5 mg/kg) turned out to be 460 mg/dL; the “plasma triglycerides (TRIG)” value (Wk 0, ISIS 366228 25 mg/kg) is 470 mg/dL; the “plasma triglycerides (TRIG)” value (Wk 1, ISIS 366228 12.5 mg/kg) is on record as 379 mg/dL; the “plasma triglycerides (TRIG)” value (Wk 1, ISIS 366228 25 mg/kg) is given as 307 mg/dL; the “plasma triglycerides (TRIG)” value (Wk 3, ISIS 366228 12.5 mg/kg) worked out at 416 mg/dL; the “plasma triglycerides (TRIG)” value (Wk 3, ISIS 366228 25 mg/kg) was found to be 354 mg/dL. Besides, the “plasma triglycerides (TRIG)” value runs as follows: (Wk 5, ISIS 366228 12.5 mg/kg) 478 mg/dL; (Wk 5, ISIS 366228 25 mg/kg) 472 mg/dL. For the setting “compared with saline or rosiglitazone alone”, the “plasma cholesterol (in words)” value was “prevented increases in plasma cholesterol”.

Source of the values: US8258114B2, “Modulation of glucose-6-phosphatase translocase expression” (Isis Pharmaceuticals, Inc., priority 2004, dated 2012).
